One test concerns the target T1, human TLR7 (Homo sapiens, UniProt Q9NYK1).
T1 construct: host or cells: HEK-Blue TLR7 cells (engineered human embryonic kidney cells)
T1 sequence (Q9NYK1 27-1049): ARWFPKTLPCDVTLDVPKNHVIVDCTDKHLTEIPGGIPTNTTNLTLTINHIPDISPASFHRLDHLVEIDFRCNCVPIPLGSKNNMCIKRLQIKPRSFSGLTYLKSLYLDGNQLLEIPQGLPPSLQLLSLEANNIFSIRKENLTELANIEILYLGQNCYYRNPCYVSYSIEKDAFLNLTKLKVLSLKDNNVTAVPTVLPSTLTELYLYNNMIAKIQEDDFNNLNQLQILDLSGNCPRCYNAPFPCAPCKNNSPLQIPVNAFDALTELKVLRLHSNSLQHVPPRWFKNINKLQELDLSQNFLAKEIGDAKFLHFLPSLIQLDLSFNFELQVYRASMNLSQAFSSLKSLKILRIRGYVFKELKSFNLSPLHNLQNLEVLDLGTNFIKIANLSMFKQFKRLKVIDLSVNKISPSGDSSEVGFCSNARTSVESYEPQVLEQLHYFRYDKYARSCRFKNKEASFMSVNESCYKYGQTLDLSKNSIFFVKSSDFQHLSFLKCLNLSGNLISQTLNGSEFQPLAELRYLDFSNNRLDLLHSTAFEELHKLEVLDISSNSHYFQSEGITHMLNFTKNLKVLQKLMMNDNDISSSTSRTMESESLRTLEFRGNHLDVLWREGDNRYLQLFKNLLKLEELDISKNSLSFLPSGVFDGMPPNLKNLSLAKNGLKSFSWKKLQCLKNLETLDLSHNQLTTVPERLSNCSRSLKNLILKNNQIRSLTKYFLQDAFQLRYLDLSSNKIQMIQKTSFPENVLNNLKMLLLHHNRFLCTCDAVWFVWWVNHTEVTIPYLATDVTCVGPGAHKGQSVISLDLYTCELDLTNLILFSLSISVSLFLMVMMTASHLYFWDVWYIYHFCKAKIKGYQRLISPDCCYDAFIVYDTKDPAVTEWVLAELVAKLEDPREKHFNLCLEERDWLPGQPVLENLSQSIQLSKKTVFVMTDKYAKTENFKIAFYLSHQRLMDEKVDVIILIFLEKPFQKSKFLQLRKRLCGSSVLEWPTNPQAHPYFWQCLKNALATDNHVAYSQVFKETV
The experiment in a line: Human TLR7 agonist activity assay (hTLR7 reporter, HEK-Blue TLR7 cells, SEAP). The format is cell-based. The settings on record: HEK-Blue TLR7 cells with SEAP reporter, 18 h treatment; average where assay performed multiple times. How it is done: This procedure describes a method for assaying human TLR7 (hTLR7) agonist activity of the compounds disclosed in this specification.
HEK-Blue™ TLR7 cells were added to each well of a 384-well tissue-culture plate (15,000 cells per well) and incubated 16-18 h at 37° C., 5% CO2. Compounds (100 nl) were dispensed into wells containing the HEK-Blue™ TLR cells and the treated cells were incubated at 37° C., 5% CO2. After 18 h treatment ten microliters of freshly-prepared Quanti-Blue™ reagent (Invivogen) was added to each well, incubated for 30 min (37° C., 5% CO2) and SEAP levels measured using an Envision plate reader (OD=620 nm). The half maximal effective concentration values (EC50; compound concentration which induced a response halfway between the assay baseline and maximum) were calculated.

In a further test the test system is CD69. The experiment in a line: Induction of CD69 in human whole blood (hWB). The format is cell-based. The settings on record: 17 hrs at 37 C, CD69 surface staining, 100% set to 1 uM resiquimod, average where performed multiple times. How it is done: The induction of Type I interferon (IFN) MX-1 genes and the B-cell activation marker CD69 are downstream events that occur upon activation of the TLR7 pathway. The following is a human whole blood assay that measures their induction in response to a TLR7 agonist.
Heparinized human whole blood was harvested from human subjects and treated with test TLR7 agonist compounds at 1 mM. The blood was diluted with RPMI 1640 media and Echo was used to predot 10 nL per well giving a final concentration of 1 uM (10 nL in 10 uL of blood). After mixing on a shaker for 30 sec, the plates were covered and placed in a 37° C. chamber for o/n=17 hrs. Fixing/lysis buffer was prepared (5×→1× in H2O, warm at 37° C.; Cat #BD 558049) and kept the perm buffer (on ice) for later use.
For surface markers staining (CD69): prepared surface Abs: 0.045 ul hCD14-FITC (ThermoFisher Cat #MHCD1401)+0.6 ul hCD19-ef450 (ThermoFisher Cat #48-0198-42)+1.5 ul hCD69-PE (cat #BD555531)+0.855 ul FACS buffer. Added 3 ul/well, spin1000 rpm for 1 min and mixed on shaker for 30 sec, put on ice for 30 mins. Stop stimulation after 30 min with 70 uL of prewarmed 1× fix/lysis buffer and use Feliex mate to resuspend (15 times, change tips for each plate) and incubate at 37C for 10 min.
Centrifuge at 2000 rpm for 5 min aspirate with HCS plate washer, mix on shaker for 30 sec and then wash with 70 uL in dPBS and pelleted 2× s (2000 rpm for 5 min) and 50 ul wash in FACS buffer pelleted 1×s(2000 rpm for 5 min). Mix on shaker for 30 sec. For Intracellular markers staining (MX-1): Add 50 ul of BD Perm buffer III and mix on shaker for 30 sec. Incubate on ice for 30 min (in the dark). Wash with 50 uL of FACS buffer 2× (spin @2300 rpm×5 min after perm) followed by mixing on shaker for 30 sec. Resuspended in 20 ul of FACS buffer containing MX1 antibody ( )(4812)-Alexa 647: Novus Biologicals #NBP2-43704AF647) 20 ul FACS bf+0.8 ul hlgG+0.04 ul MX-1. Spin 1000 rpm for 1 min, mix on shaker for 30se and the samples were incubated at RT in the dark for 45 min followed by washing 2× FACS buffer (spin @2300 rpm×5 min after perm). Resuspend 20 ul (35 uL total per well) of FACS buffer and cover with foil and place in 4° C. to read the following day. Plates were read on iQuePlus. The results were loaded into toolset and IC50 curves are generated in curve master. The y-axis 100% is set to 1 uM of resiquimod.

Consider `CCCCNc1nc(N)nc2cnn(Cc3ccc(CN4C[C@H]5C[C@@H]4CN5C)cc3OC)c12` [Compound 105, N7-butyl-1-[(2-methoxy-4-{[(1R,4R)-5-methyl-2,5-diaza-bicyclo[2.2.1]heptan-2-yl]methyl}-phenyl)methyl]-1H-pyrazolo[4,3-d]pyrimidine-5,7-diamine], for which the EC50 on human TLR7 was found to be 20.7 nM; in the test with CD69, 4.2 nM.

`COc1cc(CN2C[C@@H]3C[C@H]2CN3)ccc1Cn1ncc2nc(N)nc(NCc3cc(C)on3)c21` [Compound 106, 1-[(4-{[(1S,4S)-2,5-diazabicyclo-[2.2.1]heptan-2-yl]methyl}-2-methoxyphenyl)methyl]-N7-[(5-methyl-1,2-oxazol-3-yl)methyl]-1H-pyrazolo[4,3-d]pyrimidine-5,7-diamine]: the half-maximal effective concentration (EC50) at human TLR7 turned out to be 234 nM; in the test on CD69, 73.6 nM.

As for `CCCCNc1nc(N)nc2cnn(Cc3ccc(C(=O)N4C[C@H]5C[C@@H]4CN5C)cc3OC)c12` [Compound 110, N7-butyl-1-({2-methoxy-4-[(1R,4R)-5-methyl-2,5-diazabicyclo-[2.2.1]heptane-2-carbonyl]-phenyl}methyl)-1H-pyrazolo[4,3-d]pyrimidine-5,7-diamine], the values for the EC50 on human TLR7 and in the test on CD69 were 378 nM and 2 nM, respectively.

With `CCCCNc1nc(N)nc2cnn(Cc3ccc(C(=O)N4C[C@H]5CN(C)C[C@H]5C4)cc3OC)c12` [Compound 111, 1-({4-[(3aR,6aS)-5-methyl-octahydropyrrolo[3,4-c]pyrrole-2-carbonyl]-2-methoxyphenyl}-methyl)-N7-butyl-1H-pyrazolo[4,3-d]pyrimidine-5,7-diamine], the EC50 at human TLR7 is 16.4 nM; with CD69 it was 11.1 nM.

Turning to `COc1cc(CN2C[C@@H]3C[C@H]2CN3)ccc1Cn1ncc2nc(N)nc(NCC3CC(C4CC4)C3)c21` (stereo partly drawn) [Compound 112, N7-[(3-cyclopropylcyclobutyl)-methyl]-1-[(4-{[(1S,4S)-2,5-diazabicyclo[2.2.1]heptan-2-yl]methyl}-2-methoxy-phenyl)methyl]-1H-pyrazolo[4,3-d]pyrimidine-5,7-diamine], the concentration giving a half-maximal response (EC50) on human TLR7 turned out to be 30.5 nM; with CD69 it was 151 nM.

In the case of `COc1cc(CN2C[C@H]3CNC[C@H]3C2)ccc1Cn1ncc2nc(N)nc(NCC3CC(C4CC4)C3)c21` (stereo partly drawn) [Compound 113, 1-[(4-{[(3aR,6aS)-octahydro-pyrrolo[3,4-c]pyrrol-2-yl]methyl}-2-methoxyphenyl)methyl]-N7-[(3-cyclopropylcyclobutyl)methyl]-1H-pyrazolo[4,3-d]pyrimidine-5,7-diamine], the EC50 stood at 22.2 nM on human TLR7 and 43.2 nM with CD69.

Consider `CCCCNc1nc(N)nc2c(C)nn(Cc3ccc(C(=O)N4C[C@H]5C[C@@H]4CN5C)cc3OC)c12` [Compound 114, N7-butyl-1-({2-methoxy-4-[(1R,4R)-5-methyl-2,5-diazabicyclo-[2.2.1]heptane-2-carbonyl]phenyl}-methyl)-3-methyl-1H-pyrazolo[4,3-d]pyrimidine-5,7-diamine], for which the half-maximal effective concentration (EC50) on human TLR7 was found to be 120 nM; in the test on CD69, 15.4 nM.

Take `CCCCNc1nc(N)nc2c(C)nn(Cc3ccc(C(=O)N4C[C@H]5CN(C)C[C@H]5C4)cc3OC)c12` [Compound 115, 1-({4-[(3aR,6aS)-5-methyl-octahydropyrrolo[3,4-c]pyrrole-2-carbonyl]-2-methoxyphenyl}methyl)-N7-butyl-3-methyl-1H-pyrazolo[4,3-d]pyrimidine-5,7-diamine]: the EC50 on human TLR7 stood at 79.8 nM; in the test with CD69, 10.9 nM.

Turning to `CCCCNc1nc(N)nc2cnn(Cc3ccc(C(=O)N4C[C@H]5CN(C)C[C@H]5C4)cc3OC(F)F)c12` [Compound 116, 1-({4-[(3aR,6aS)-5-methyl-octa-hydropyrrolo[3,4-c]pyrrole-2-carbonyl]-2-(difluoromethoxy)phenyl}-methyl)-N7-butyl-1H-pyrazolo[4,3-d]pyrimidine-5,7-diamine], the EC50 amounted to 172 nM on human TLR7 and 14.2 nM in the test on CD69.

Turning to `CCCCNc1nc(N)nc2cnn(Cc3ccc(CN4C[C@H]5CN(C)C[C@H]5C4)cc3OC(F)F)c12` [Compound 117, 1-[(4-{[(3aR,6aS)-5-methyl-octa-hdropyrrolo[3,4-c]pyrrol-2-yl]methyl}-2-(difluoromethoxy)phenyl)-methyl]-N7-butyl-1H-pyrazolo[4,3-d]pyrimidine-5,7-diamine], the EC50 on human TLR7 turned out to be 92.4 nM; with CD69 it was 16.2 nM.

On to `CCCCNc1nc(N)nc2cnn(Cc3ccc(C(=O)N4C[C@H]5CN(C)C[C@H]5C4)cc3OC3CC3)c12` [Compound 118, 1-({4-[(3aR,6aS)-5-methyl-octa-hydropyrrolo[3,4-c]pyrrole-2-carbonyl]-2-cyclopropoxyphenyl}-methyl)-N7-butyl-1H-pyrazolo[4,3-d]pyrimidine-5,7-diamine], for which the EC50 stood at 339 nM at human TLR7 and 51.8 nM in the test on CD69.

Regarding `CCC[C@@H](CCO)Nc1nc(N)nc2cnn(Cc3ccc(C(=O)N4C[C@H]5C[C@@H]4CN5C)cc3OC)c12` [Compound 119, (3S)-3-{[5-amino-1-({2-methoxy-4-[(1R,4R)-5-methyl-2,5-diazabicyclo [2.2.1]heptane-2-carbonyl]phenyl}methyl)-1H-pyrazolo[4,3-d]pyrimidin-7-yl]amino}hexan-1-ol], the EC50 turned out to be 106 nM on human TLR7 and 18.1 nM in the test on CD69.

As to `CCC[C@@H](CCO)Nc1nc(N)nc2cnn(Cc3ccc(C(=O)N4C[C@H]5CNC[C@H]5C4)cc3OC)c12` [Compound 120], the EC50 at human TLR7 was found to be 173 nM; with CD69 it was 138 nM.

`COc1cc(CN2C[C@@H]3C[C@H]2CN3CCO)ccc1Cn1nc(C)c2nc(N)nc(NCc3noc(C)n3)c21` [Compound 142, 2-[(1S,4S)-5-({4-[(5-amino-3-methyl-7-{[(5-methyl-1,2,4-oxadiazol-3-yl)methyl]amino}-1H-pyrazolo-[4,3-d]pyrimidin-1-yl)methyl]-3-methoxyphenyl}methyl)-2,5-diaza-bicyclo[2.2.1]heptan-2-yl]ethan-1-ol] had a half-maximal effective concentration (EC50) at human TLR7 of 1230 nM.

One may read the EC50 as the concentration giving half of the maximal effect. The low end stands for an effect from little substance, the high end for a need for much substance.

These data come from patent US20230041738A1, “1H-PYRAZOLO[4,3-d]PYRIMIDINE COMPOUNDS AS TOLL-LIKE RECEPTOR 7 (TLR7) AGONISTS” (BRISTOL-MYERS SQUIBB COMPANY, priority 2020, published 2023).
